Literature values as cited in US6794359B2, “Vertebrate intestinal protein which absorbs cholesterol, its inhibitors and mehtod of identifying the same” (Aventis Pharma Deutschland GmbH, priority 2000, dated 2004).
Where two headings read alike, the source gives them in different places.

Key:
[1] = tested on: intestinal cholesterol absorption; details: humans
[2] = tested on: intestinal cholesterol absorption; details: hamsters
[3] = tested on: intestinal cholesterol absorption; details: rabbits
[4] = tested on: intestinal cholesterol absorption; details: rhesus monkeys
[5] = tested on: intestinal cholesterol absorption; details: dogs

COc1ccc([C@@H]2[C@@H](CCCc3ccccc3)C(=O)N2c2ccc(OC)cc2)cc1 [SCH 48461]
inhibition of intestinal cholesterol absorption [1]: very efficiently inhibits | inhibition of intestinal cholesterol absorption [2]: very efficiently inhibits | inhibition of intestinal cholesterol absorption [3]: very efficiently inhibits | inhibition of intestinal cholesterol absorption [4]: very efficiently inhibits | inhibition of intestinal cholesterol absorption [5]: very efficiently inhibits

O=C1[C@H](CC[C@H](O)c2ccc(F)cc2)[C@@H](c2ccc(O)cc2)N1c1ccc(F)cc1 [SCH 58235]
increase of effect on direct comparison ([2]; direct comparison with SCH 48461): 50 fold

CC[C@H](CC[C@@H](C)[C@H]1CC[C@H]2[C@@H]3CC=C4C[C@@H](O)CC[C@]4(C)[C@H]3CC[C@]12C)C(C)C [β-sitosterol]
inhibition of cholesterol absorption ([1]; background statement): an inhibition of cholesterol absorption
